In patent publication US9737607B2, “Polymer, and pharmaceutical composition employing the same” (INDUSTRIAL TECHNOLOGY RESEARCH INSTITUTE, priority 2014, dated 2017):

What was measured:
[1] = tested on: Sal. Typhimurium TA100 strain; experiment: Ames test, TA100; conditions: without S9, positive control 100 μL/plate
Description: (§1) The Ames test was carried out using Sal. Typhimurium TA98 strain and Sal. Typhimurium TA100 strain without an enzyme for activating metabolism of drugs (S9).
(§2) The Ames test was carried out using Sal. Typhimurium TA98 strain and Sal. Typhimurium TA100 strain with an enzyme for activating metabolism of drugs (S9). DMSO (100 μL/plate) was used as negative control, and (+)Benzo[α]pyrene (100 μL/plate) was used as positive control.

[2] = tested on: Sal. Typhimurium TA98 strain; experiment: Ames test, TA98; conditions: without S9, positive control 100 μL/plate
Description: as §1, §2

Nc1ccc([N+](=O)[O-])cc1N [NOPD, 4-nitro-o-phenylenediamine]
TA100 (CFU/plate) [1]: 1019 CFU/plate | TA98 (CFU/plate) [2]: 1200 CFU/plate
